Data on 5 compounds can be found in patent US20130042333A1, “MARKERS FOR CANCER PROGNOSIS AND THERAPY AND METHODS OF USE” (priority 2011, published 2013).

Experiment [1] concerns TC305 colorectal tumor xenograft. Kind of experiment: Tumor regression-regrowth assay, TC305 xenograft. Type of experiment: in vivo, human tumor in immunodeficient mice. The following applies: x1 cycle, mg/kg: Ox 10, Cap 540, I 50, B 5, Cet 5. The text has this:
(§1) Tumor xenografts were generated by direct subcutaneous grafting into immunodeficient mice of human tumor surgical samples with informed written consent of the patients and maintained by serial transplantation. […] They are thus clinically relevant tumor models, as opposed to xenografts produced from tumor cell lines that have been obtained by in vitro culture and often passaged for many years (Fiebig, H. H. et al. Eur J Cancer 40, 802-820, 2004; Marangoni E., Vincent-Salomon A., Auger N. et al. Clin Cancer Res. 2007 Jul. 1; 13:3989-98).
(§2) Chemotherapeutic drugs were administered by intraperitoneal route according to the following doses and schedules: adriamycin, 2 mg/kg, q3wk (Doxorubicin®, Teva Pharmaceuticals, France) and Cyclophosphamide, 100 mg/kg, q3wk (Endoxan®, Baxter, France). Irinotecan (Campto®, Pfizer Holding France), 50 mg/kg, q4dx4. Etoposide 12 mg/kg, qdx3. Ifosfamide 90 mg/kg, qdx3. bPARP inhibitor (AZD2281, Sequoia Research Products, UK) at 50 mg/kg (ip; qdx14). A second treatment cycle was performed with PARP inhibitor at 50 mg/kg (ip qdx5) during the nodule phase. Other pharmacological inhibitors are tested and administrated at the nodule phase: JAK1/2 Inhibitor (CP-690550) at 15 mg/kg (po qdx14), Epigallocatechin gallate (ECGC) (Sequoia Research Products, UK) at 30 mg/kg (ip qdx28), HDAC inhibitor (Trichostatine A), Retinoic acid at 50 mg/kg (ip qdx28) (Sigma-Aldrich, France). Breast tumor xenograft models were transplanted into 5-week old female Swiss nude mice, as described above, one tumor being transplanted into 5-10 recipients. When tumors reached a volume of 60-250 mm3, mice were individually identified and randomly assigned to the control or treated groups (12 to 20 mice per group). Tumor volume was evaluated by measuring two perpendicular diameters of the tumor, with a calliper, biweekly during the treatment period and once a week during the follow-up period. The formula TV (mm3)=[length (mm)×width (mm)2]/2 was used, where the length and the width were the longest and the shortest diameters of the tumor, respectively. All animals were weighted biweekly during the treatment period and the follow-up period. Mice were ethically sacrificed when the tumor volume reached 2000 mm3 Individual tumor growth delays (TGD) is calculated as the time in days required for individual tumors to reach 3- to 5-fold the initial median tumor volume. The tumor growth delay index (TGDI) is calculated as the median growth delay in the treated group divided by the median growth delay in the control group. The percentage ratio between the mean tumor volume of a treated group (T) and the mean tumor volume of the control group (C) is calculated.
(§3) Tumors were collected from 5 independent mice at different time points: prior to treatment (=controls with volume<200 mm3); post-treatment residual tumors (=nodules with volume<32 mm3 until minimal palpation); recurrent tumors (=regrowth with volume>62.5 mm3) Tumors or nodules were processed for (1) FFPE (formalin-fixed paraffin-embedded) or for (2) snap frozen samples: samples were cut into 3-4 mm pieces (at least 3 fragments) and snap-frozen in liquid nitrogen, then transferred to −80° C. for storage. Samples were allocated for histology, microdissection and RNA analyses.
(§4) Three categories of responders were defined based on the TGDI and T/C values.
A general note: Xenograft models place foreign cells or tissue in a host animal.

For experiment [2], the system named is HBCx-39 breast tumor xenograft. Kind of experiment: Tumor regression-regrowth assay, HBCx-39 xenograft. The following applies: Cap 540 mg/kg, x2 cycles. Type of experiment: in vivo, human tumor in Swiss nude mice.
Text: as §1, §2, §3, §4

For experiment [3], the system named is HBCx-17 breast tumor xenograft. Put plainly: Tumor regression-regrowth assay, HBCx-17 xenograft. The experiment is classed as in vivo, human tumor in Swiss nude mice. The following applies: A/C 2/100 or Cap 540 mg/kg, x2 cycles.
Text: as §1, §2, §3, §4

Experiment [4] deals with TC71 colorectal tumor xenograft. Kind of experiment: Tumor regression-regrowth assay, TC71 xenograft. Type of experiment: in vivo, human tumor in immunodeficient mice. Conditions: x1 cycle, mg/kg: Ox 10, Cap 540, I 50, B 5, Cet 5.
Text: as §1, §2, §3, §4

Experiment [5] has as its system HBCx-6 breast cancer xenograft. Kind of experiment: Tumor regression-regrowth assay, HBCx-6 xenograft. Type of experiment: in vivo, human tumor in Swiss nude mice. The following applies: HBCx-6 combination study; A/C 2/100 mg/kg; AZD2281 50 mg/kg i.p.
Text: as §1
(§5) Chemotherapeutic drugs were administered by intraperitoneal route according to the following doses and schedules: adriamycin, 2 mg/kg, q3wk (Doxorubicin®, Teva Pharmaceuticals, France) and Cyclophosphamide, 100 mg/kg, q3wk (Endoxan®, Baxter, France). […] Tumor volume was evaluated by measuring two perpendicular diameters of the tumor, with a calliper, biweekly during the treatment period and once a week during the follow-up period. […] Mice were ethically sacrificed when the tumor volume reached 2000 mm3 Individual tumor growth delays (TGD) is calculated as the time in days required for individual tumors to reach 3- to 5-fold the initial median tumor volume. The tumor growth delay index (TGDI) is calculated as the median growth delay in the treated group divided by the median growth delay in the control group. […]

In experiment [6] the test system is HBCx-24 breast tumor xenograft. Put plainly: Tumor regression-regrowth assay, HBCx-24 xenograft. The following applies: Doc 20 mg/kg, x2 cycles. The experiment is classed as in vivo, human tumor in Swiss nude mice.
Text: as §1, §2, §3, §4

In experiment [7] the test system is IC20DAN (a primary NSCLC tumor xenograft). Kind of experiment: Tumor regression-regrowth assay, IC20DAN xenograft. Type of experiment: in vivo, human tumor in immunodeficient mice. The following applies: Doc 20 mg/kg, x1 cycle.
Text: as §1, §2, §3, §4

For experiment [8], the system named is ODA14 RAV glioma xenograft. Put plainly: Tumor regression-regrowth assay, ODA14 RAV xenograft. The experiment is classed as in vivo, human tumor in immunodeficient mice. Conditions: TMZ 42 mg/kg, x1 cycle.
Text: as §1, §2, §3, §4

Experiment [9] relates to SC61 small-cell lung cancer xenograft. Put plainly: Tumor regression-regrowth assay, SC61 xenograft. The experiment is classed as in vivo, human tumor in immunodeficient mice. Conditions: x1 cycle.
Text: as §1
as §5, with “France). Irinotecan (Campto®, Pfizer Holding France), 50 mg/kg, q4dx4. Etoposide 12 mg/kg, qdx3. Ifosfamide 90 mg/kg, qdx3. bPARP inhibitor (AZD2281, Sequoia Research Products, UK) at 50 mg/kg (ip; qdx14). A second treatment cycle was performed with PARP inhibitor at 50 mg/kg (ip qdx5) during the nodule phase.” for “France).”, “group. The percentage ratio between the mean tumor volume of a treated group (T) and the mean tumor volume of the control group (C) is calculated.” for “group.”

Where [10] appears, read: CDDP 2/12 or VP16/IFO 12/90 mg/kg.

As for `CCCCCOC(=O)Nc1nc(=O)n([C@@H]2O[C@H](C)[C@@H](O)[C@H]2O)cc1F` [Cap, capecitabine], in experiment [1], the “% Nodules” value was determined as 33%, the “% Tumor Relapse” value was found to be 100%, the “Median Nodule Apparition Time” value is on record as 7 and the “Median Time of Relapse” value is reported as 11. Moreover, in experiment [1], the “T/C % D21” value is given as 40%, the TGDI came out at 1.74 and the “median TGD × 5” value came to 27.87 days. Further, in [2], the “% Nodules” value is reported as 56%, the “% Tumor Relapse” value was found to be 100%, the “Median Nodule Apparition Time” value was determined as 17 and the “Median Time of Relapse” value was 63. In experiment [2], the “T/C % D21” value worked out at 11%, the TGDI is on record as more than 4.54 and the “median TGD × 5” value was more than 84 days. Further, in [3], the “% Nodules” value came out at 30%, the “% Tumor Relapse” value came to 100%, the “Median Nodule Apparition Time” value amounted to 50 and the “Median Time of Relapse” value was found to be 4. For the same compound, in experiment [3], the “T/C % D21” value was determined as 48%, the “T/C % D42” value is listed as 12%, the TGDI was more than 2.81 and the “median TGD × 5” value is more than 64 days. Further, in [4], the “% Nodules” value amounted to 100%, the “% Tumor Relapse” value was 100%, the “Median Nodule Apparition Time” value worked out at 22 and the “Median Time of Relapse” value was found to be 36. In addition, in experiment [4], the “T/C % D21” value was found to be 5%, the TGDI was 5.11 and the “median TGD × 5” value was 66.48 days.

Regarding `O=C(c1cc(Cc2n[nH]c(=O)c3ccccc23)ccc1F)N1CCN(C(=O)C2CC2)CC1` [AZD2281], in experiment [5], the anti-tumor activity result is listed as “significant anti-tumor activity” and the “tumors showing complete tumor regression” value was 2 out of 7.

As to `CC(=O)O[C@@]12CO[C@@H]1C[C@H](O)[C@@]1(C)C(=O)[C@H](O)C3=C(C)[C@@H](OC(=O)[C@H](O)[C@@H](NC(=O)OC(C)(C)C)c4ccccc4)C[C@@](O)([C@@H](OC(=O)c4ccccc4)[C@H]21)C3(C)C` [Doc, docetaxel], in experiment [6], the “% Nodules” value stood at 70%, the “% Tumor Relapse” value is reported as 71.4%, the “Median Nodule Apparition Time” value amounted to 10 and the “Median Time of Relapse” value is recorded as 14. Besides, in [6], the “T/C % D21” value is recorded as 21%, the TGDI was determined as 2.39 and the “median TGD × 5” value was found to be 35.44 days. Also, in experiment [7], the “% Nodules” value worked out at 60%, the “% Tumor Relapse” value stood at 100%, the “Median Nodule Apparition Time” value was 11 and the “Median Time of Relapse” value was found to be 9. For the same compound, in experiment [7], the TGDI is more than 4.8 and the “median TGD × 5” value was more than 24 days.

For the compound `Cn1nnc2c(C(N)=O)ncn2c1=O` [TMZ], in [8], the “% Nodules” value is listed as 100%, the “% Tumor Relapse” value is reported as 100%, the “Median Nodule Apparition Time” value amounted to 7 and the “Median Time of Relapse” value came out at 21. For the same compound, in experiment [8], the TGDI is 6.66 and the “median TGD × 5” value worked out at 46.62 days.

Regarding `[NH2][Pt]([NH2])([Cl])[Cl]` [CDDP, cisplatin], in experiment [9] (CDDP 2/12 mg/kg), the “% Tumor Relapse” value was 100%. Besides, in experiment [9] (setting [10]), the “% Nodules” value is given as 23% and the “Median Nodule Apparition Time” value came out at 13.
